pIC50: −log10 of the molar value. Where two headings read alike, the source gives them in different places.
Columns and labels:
cancer cell lines = details: cited from earlier work
[1] = system: CCRF‐CEM (acute lymphoblastic leukemia); experiment: Cytotoxic activity against CCRF-CEM; format: cell-based; details: Homo sapiens, average of at least three independent experiments
Protocol: (§1) Finally, the amino‐BODIPY 16 and all prepared conjugates 1–15 were tested for cytotoxic activity against selected cancer cell lines (Table 1). The tests were performed on cancer cell lines derived from solid tumors as well as hematological malignancies: CCRF‐CEM (acute lymphoblastic leukemia), K562 (chronic myeloid leukemia), A549 (lung adenocarcinoma), colorectal carcinoma cell lines HCT116 with and without functional p53 protein HCT116p53, respectively. The panel also included chemoresistant subclone CCRF‐CEM‐DNR (resistant to daunorubicine) overexpressing P‐glycoprotein and/or lung resistance‐related protein (LRP), which are pumps or detoxifying systems responsible for the most common forms of clinical resistance. To evaluate non‐tumor cells′ toxicity, we used human skin fibroblast cell line BJ and lung fibroblast cell line MRC‐5. […] This dye is also slightly toxic to normal fibroblast BJ and MRC with IC50>40 μM and low‐density seeding variants BJ‐LD and MRC‐LD with higher proliferation and no contact inhibition. Connection of amino‐BODIPY 16 with 3‐HQs via non‐cleavable maleimide linker (conjugates 6–10) as well as via cleavable linker (compounds 11–15) causes higher selectivity toward CCRF‐CEM lines. […] The selectivity of conjugates toward leukemia cells could be caused by interaction with a specific target for the CCRF‐CEM or K562 cells, respectively, or by particular transport to these cell lines. The later reason could explain the lower toxicity of amino‐BODIPY released from the conjugate compared to free amino‐BODIPY 16 directly applied to the cells.

[2] = system: CCRF‐CEM‐DNR (resistant to daunorubicine); experiment: Cytotoxic activity against CEM-DNR; format: cell-based; details: Homo sapiens, daunorubicine-resistant subclone, average of at least three independent experiments
Protocol: as §1

[3] = system: K562 (chronic myeloid leukemia); experiment: Cytotoxic activity against K562; format: cell-based; details: Homo sapiens, average of at least three independent experiments
Protocol: as §1

K562‐TAX = experiment: Cytotoxic activity against K562-TAX; format: cell-based; details: average of at least three independent experiments
[4] = system: A549 (lung adenocarcinoma); experiment: Cytotoxic activity against A549; format: cell-based; details: Homo sapiens, average of at least three independent experiments
Protocol: as §1

[5] = system: HCT116 (colorectal carcinoma); experiment: Cytotoxic activity against HCT116; format: cell-based; details: Homo sapiens, HCT-116; average of at least three independent experiments
Protocol: as §1

[6] = system: HCT116p53 (colorectal carcinoma); experiment: Cytotoxic activity against HCT116p53; format: cell-based; details: average of at least three independent experiments
Protocol: as §1

U2OS = experiment: Cytotoxic activity against U2OS; format: cell-based; details: Homo sapiens, average of at least three independent experiments
[7] = system: skin fibroblast cell line BJ; experiment: Toxicity to non-tumor fibroblasts BJ; format: cell-based, human
Protocol: as §1

[8] = system: BJ‐LD (low‐density seeding variant); experiment: Toxicity to non-tumor fibroblasts BJ-LD; format: cell-based; details: Homo sapiens, Fibroblast, higher proliferation, no contact inhibition
Protocol: as §1

[9] = system: lung fibroblast cell line MRC‐5; experiment: Toxicity to non-tumor fibroblasts MRC; format: cell-based, human
Protocol: as §1

[10] = system: MRC‐LD (low‐density seeding variant); experiment: Toxicity to non-tumor fibroblasts MRC-LD; format: cell-based; details: Homo sapiens, Fibroblast, higher proliferation, no contact inhibition
Protocol: as §1

[11] = GSH-mediated cleavage monitored by LC/MS; format: physicochemical; details: 5 mM GSH, 5 μM conjugate 11 in HEPES buffer, 7.4 pH, 37 °C
From the text: As reported previously, the GSH mediated cleavage of the disulfide linker results in the release of the 3‐HQ derivative together with the Amino‐BODIPY.[30] […] As the mechanism of GSH‐mediated cleavage and LC/MS analysis in Figure 2A and 2B depict nucleophilic thiol group on glutathione attacks the disulfide bond resulting in the formation of GSH adducts 19 and 20. Intermediate 19 further reacts with excess of GSH and self‐immolative linker is cyclized while free Amino‐BODIPY 16 is released.
Figure 2 (A) Mechanism of GSH‐mediated cleavage of conjugate 11 (5 mM GSH, 5 μM conjugate 11 in HEPES buffer, 7.4 pH, 37 °C). (B) Time‐dependent stability of compounds 1, 11, 16, 19 and 20 monitored by LC/MS. (C) Excitation/emission spectra of the conjugate 11 and the released Amino‐BODIPY 16 enabling the OFF‐ON fluorescence effect when excitation at 485 nm and emission at 530 nm is applied.

[12] = Homo sapiens, MRC5, non-tumor lung fibroblasts

Compound | Activity and selectivity toward cancer cells (cancer cell lines) | Activity and selectivity against cancer cell lines (cancer cell lines) | Activity against various cancer cell lines (cancer cell lines; reported previously, no reference given) | Cytotoxicity against cancer cells (cancer cell lines) | Activity against cancer cells (cancer cell lines) | pIC50 [1] | pIC50 [2] | pIC50 [3] | pIC50 (K562‐TAX) | pIC50 [4] | pIC50 [5] | pIC50 [6] | pIC50 (U2OS) | pIC50 ([7]; Homo sapiens, Skin fibroblast) | pIC50 [8] | pIC50 [9, 12] | pIC50 [10] | pIC50 [7] | pIC50 ([9]; non-tumor lung fibroblasts) | Stability of cleavage intermediate by LC/MS [11]
NC(=O)c1cc(-c2[nH]c3ccccc3c(=O)c2O)ccc1N1CCCCC1 [2‐(3‐carboxamide‐4‐piperid‐1‐ylphenyl)‐3‐hydroxy‐4(1H)‐quinolinone] | significant activity and increased selectivity | – | – | – | – | – | – | – | – | – | – | – | – | – | – | – | – | – | – | –
O=c1c(O)c(-c2ccc(N3CCCCC3)c([N+](=O)[O-])c2)[nH]c2ccccc12 [2‐(3‐nitro‐4‐piperid‐1‐ylphenyl)‐3‐hydroxy‐4(1H)‐quinolinone] | – | significant activity but low selectivity | – | – | – | – | – | – | – | – | – | – | – | – | – | – | – | – | – | –
Nc1c(Cl)cc(-c2[nH]c3ccccc3c(=O)c2O)cc1Cl [2‐(4‐amino‐3,5‐dichlorophenyl)‐3‐hydroxy‐4(1H)‐quinolinone] | – | – | active | – | – | – | – | – | – | – | – | – | – | – | – | – | – | – | – | –
O=c1c(O)c(-c2ccc(F)cc2)[nH]c2ccccc12 [2‐(4‐fluorophenyl)‐3‐hydroxy‐4(1H)‐quinolinone] | – | – | – | low cytotoxicity | – | – | – | – | – | – | – | – | – | – | – | – | – | – | – | –
O=c1c(O)c(-c2ccccc2)[nH]c2ccccc12 [2‐phenyl‐3‐hydroxy‐4(1H)‐quinolinone] | – | – | – | – | no activity | – | – | – | – | – | – | – | – | – | – | – | – | – | – | –
Cc1cc(C)n2c1C=C1C=CC(NC(=O)OCCCN3C(=O)CC(SCC(NC(=O)c4ccc5c(=O)c(O)c(-c6ccccc6)[nH]c5c4)C(N)=O)C3=O)=[N+]1[B-]2(F)F (stereo not drawn) [Compound 6] | – | – | – | – | – | 4.84 | < 4.30 | < 4.30 | < 4.30 | < 4.30 | < 4.30 | < 4.30 | < 4.30 | < 4.30 | < 4.30 | < 4.30 | < 4.30 | – | – | –
Cc1cc(C)n2c1C=C1C=CC(NC(=O)OCCCN3C(=O)CC(SCC(NC(=O)c4ccc5c(=O)c(O)c(-c6ccc(F)cc6)[nH]c5c4)C(N)=O)C3=O)=[N+]1[B-]2(F)F (stereo not drawn) [Compound 7] | – | – | – | – | – | 5.20 | < 4.30 | < 4.30 | < 4.30 | < 4.30 | < 4.30 | < 4.30 | < 4.30 | < 4.30 | < 4.30 | < 4.30 | < 4.30 | – | – | –
Cc1cc(C)n2c1C=C1C=CC(NC(=O)OCCCN3C(=O)CC(SCC(NC(=O)c4ccc5c(=O)c(O)c(-c6cc(Cl)c(N)c(Cl)c6)[nH]c5c4)C(N)=O)C3=O)=[N+]1[B-]2(F)F (stereo not drawn) [Compound 8] | – | – | – | – | – | 4.90 | < 4.30 | < 4.30 | < 4.30 | < 4.30 | < 4.30 | < 4.30 | < 4.30 | < 4.30 | < 4.30 | < 4.30 | < 4.30 | – | – | –
Cc1cc(C)n2c1C=C1C=CC(NC(=O)OCCCN3C(=O)CC(SCC(NC(=O)c4ccc5c(=O)c(O)c(-c6ccc(N7CCCCC7)c([N+](=O)[O-])c6)[nH]c5c4)C(N)=O)C3=O)=[N+]1[B-]2(F)F (stereo not drawn) [Compound 9] | – | – | – | – | – | < 4.30 | < 4.30 | 5.39 | < 4.30 | < 4.30 | < 4.30 | < 4.30 | < 4.30 | < 4.30 | – | < 4.30 | – | – | – | –
Cc1cc(C)n2c1C=C1C=CC(NC(=O)OCCCN3C(=O)CC(SCC(NC(=O)c4ccc5c(=O)c(O)c(-c6ccc(N7CCCCC7)c(C(N)=O)c6)[nH]c5c4)C(N)=O)C3=O)=[N+]1[B-]2(F)F (stereo not drawn) [Compound 10] | – | – | – | – | – | 5.29 | < 4.30 | < 4.30 | 4.30 | < 4.30 | < 4.30 | < 4.30 | < 4.30 | < 4.30 | < 4.30 | < 4.30 | < 4.30 | – | – | –
Cc1cc(C)n2c1C=C1C=CC(NC(=O)OCCSSCC(NC(=O)c3ccc4c(=O)c(O)c(-c5ccccc5)[nH]c4c3)C(N)=O)=[N+]1[B-]2(F)F (stereo not drawn) [Compound 11] | – | – | – | – | – | 4.70 | 4.46 | 4.30 | 4.40 | 4.30 | < 4.30 | < 4.30 | < 4.30 | < 4.30 | < 4.30 | < 4.30 | < 4.30 | – | – | –
Cc1cc(C)n2c1C=C1C=CC(NC(=O)OCCSSCC(NC(=O)c3ccc4c(=O)c(O)c(-c5ccc(F)cc5)[nH]c4c3)C(N)=O)=[N+]1[B-]2(F)F (stereo not drawn) [Compound 12] | – | – | – | – | – | 5.09 | 4.58 | 4.35 | 4.47 | 4.33 | < 4.30 | 4.30 | 4.37 | < 4.30 | < 4.30 | < 4.30 | < 4.30 | – | – | –
Cc1cc(C)n2c1C=C1C=CC(NC(=O)OCCSSCC(NC(=O)c3ccc4c(=O)c(O)c(-c5cc(Cl)c(N)c(Cl)c5)[nH]c4c3)C(N)=O)=[N+]1[B-]2(F)F (stereo not drawn) [Compound 13] | – | – | – | – | – | 5.59 | 4.40 | 4.38 | 4.38 | < 4.30 | < 4.30 | < 4.30 | < 4.30 | < 4.30 | < 4.30 | < 4.30 | < 4.30 | – | – | –
Cc1cc(C)n2c1C=C1C=CC(NC(=O)OCCSSCC(NC(=O)c3ccc4c(=O)c(O)c(-c5ccc(N6CCCCC6)c([N+](=O)[O-])c5)[nH]c4c3)C(N)=O)=[N+]1[B-]2(F)F (stereo not drawn) [Compound 14] | – | – | – | – | – | 5.82 | 4.42 | 4.52 | 4.39 | 4.33 | 4.40 | 4.37 | 4.36 | < 4.30 | < 4.30 | < 4.30 | < 4.30 | – | – | –
Cc1cc(C)n2c1C=C1C=CC(NC(=O)OCCSSCC(NC(=O)c3ccc4c(=O)c(O)c(-c5ccc(N6CCCCC6)c(C(N)=O)c5)[nH]c4c3)C(N)=O)=[N+]1[B-]2(F)F (stereo not drawn) [Compound 15] | – | – | – | – | – | < 4.30 | 4.33 | < 4.30 | 4.34 | < 4.30 | < 4.30 | < 4.30 | < 4.30 | < 4.30 | < 4.30 | < 4.30 | < 4.30 | – | – | –
Cc1cc(C)n2c1C=C1C=CC(N)=[N+]1[B-]2(F)F [Compound 16, amino‐BODIPY] | – | – | – | – | – | 5.37 | 5.29 | 5.48 | 5.19 | 4.33 | 4.94 | 4.89 | 4.70 | < 4.40 | 4.55 | < 4.40 | 4.57 | 4.30 | 4.40 | –
NC(=O)C(CSSC[C@H](NC(=O)CC[C@H](N)C(=O)O)C(=O)NCC(=O)O)NC(=O)c1ccc2c(=O)c(O)c(-c3ccccc3)[nH]c2c1 (stereo partly drawn) [Compound 20] | – | – | – | – | – | – | – | – | – | – | – | – | – | – | – | – | – | – | – | relatively stable

From PMC8562313, “Cytotoxicity of Amino‐BODIPY Modulated via Conjugation with 2‐Phenyl‐3‐Hydroxy‐4(1H)‐Quinolinones” (ChemistryOpen, 2021)
